Test system: KRAS patient-derived spheroids with HUVEC/MSC, viability
Test: Anticancer human tumor 519858-162-T-J1-PDC patient-derived colon adenocarcinoma cell line growth inhibition [KRAS2]
Details: for viability, T/C: stronger effect = lower value
How it was run: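 KRAS-mutant tumor cells were grown as spheroids with HUVEC endothelial cells and human MSCs as stroma. Targeted agents were tested alone and with KRAS pathway inhibitors. Doses started at or near clinical Cmax, or 10 microM, descending half-log.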

[1] = curve of first compound, second compound 0.1 µM
[2] = curve of first compound, second compound 0.316 µM
[3] = curve of first compound, second compound 1 µM
[4] = curve of first compound, second compound 3.16 µM
[5] = second compound 0.1 µM, first compound 0.01 µM
[6] = second compound 0.1 µM, first compound 0.0316 µM
[7] = second compound 0.1 µM, first compound 0.1 µM
[8] = second compound 0.1 µM, first compound 0.316 µM
[9] = second compound 0.1 µM, first compound 1 µM
[10] = second compound 0.1 µM, first compound 3.16 µM
[11] = second compound 0.316 µM, first compound 0.01 µM
[12] = second compound 0.316 µM, first compound 0.0316 µM
[13] = second compound 0.316 µM, first compound 0.1 µM
[14] = second compound 0.316 µM, first compound 0.316 µM
[15] = second compound 0.316 µM, first compound 1 µM
[16] = second compound 0.316 µM, first compound 3.16 µM
[17] = second compound 1 µM, first compound 0.01 µM
[18] = second compound 1 µM, first compound 0.0316 µM
[19] = second compound 1 µM, first compound 0.1 µM
[20] = second compound 1 µM, first compound 0.316 µM
[21] = second compound 1 µM, first compound 1 µM
[22] = second compound 1 µM, first compound 3.16 µM
[23] = second compound 3.16 µM, first compound 0.01 µM
[24] = second compound 3.16 µM, first compound 0.0316 µM
[25] = second compound 3.16 µM, first compound 0.1 µM
[26] = second compound 3.16 µM, first compound 0.316 µM
[27] = second compound 3.16 µM, first compound 1 µM
[28] = second compound 3.16 µM, first compound 3.16 µM
[29] = curve of first compound, second compound 10 µM
[30] = second compound 0.1 µM, first compound 10 µM
[31] = second compound 0.316 µM, first compound 10 µM
[32] = second compound 1 µM, first compound 10 µM
[33] = second compound 3.16 µM, first compound 10 µM
[34] = second compound 10 µM, first compound 0.0316 µM
[35] = second compound 10 µM, first compound 0.1 µM
[36] = second compound 10 µM, first compound 0.316 µM
[37] = second compound 10 µM, first compound 1 µM
[38] = second compound 10 µM, first compound 3.16 µM
[39] = second compound 10 µM, first compound 10 µM
[40] = second compound 0.1 µM, first compound 0.000316 µM
[41] = second compound 0.1 µM, first compound 0.001 µM
[42] = second compound 0.1 µM, first compound 0.00316 µM
[43] = second compound 0.316 µM, first compound 0.000316 µM
[44] = second compound 0.316 µM, first compound 0.001 µM
[45] = second compound 0.316 µM, first compound 0.00316 µM
[46] = second compound 1 µM, first compound 0.000316 µM
[47] = second compound 1 µM, first compound 0.001 µM
[48] = second compound 1 µM, first compound 0.00316 µM
[49] = second compound 3.16 µM, first compound 0.000316 µM
[50] = second compound 3.16 µM, first compound 0.001 µM
[51] = second compound 3.16 µM, first compound 0.00316 µM
[52] = second compound 10 µM, first compound 0.000316 µM
[53] = second compound 10 µM, first compound 0.001 µM
[54] = second compound 10 µM, first compound 0.00316 µM
[55] = second compound 10 µM, first compound 0.01 µM
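Also: compound exposure lasted seven days before readout.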
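For viability, T/C in this document: 100% = DMSO vehicle control viability.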

SMILES	IC50 [1]	IC50 [2]	IC50 [3]	IC50 [4]	viability, T/C [6]	viability, T/C [7]	viability, T/C [8]	viability, T/C [9]	viability, T/C [10]	viability, T/C [12]	viability, T/C [13]	viability, T/C [14]	viability, T/C [15]	viability, T/C [18]	viability, T/C [19]	viability, T/C [24]	viability, T/C [25]	IC50 [29]	viability, T/C [34]	viability, T/C [35]	also measured
CC1COCCN1c1cc(-c2ccnn2C)c2ccnc(-c3ccn[nH]3)c2n1 (configuration not stated) + C=CC(=O)N1CCN(c2nc(OCC3CCCN3C)nc3c2CCN(c2cccc4cccc(C)c24)C3)CC1CC#N	434 nM	813 nM	470 nM	< 10 nM	74%	73.3%	51.6%	50.3%	28.4%	72.7%	71.2%	69.5%	45.7%	58.3%	84.5%	64.3%	24.3%				IC50 (curve of first compound, second compound 0.0316 µM): 2390 nM; viability, T/C (second compound 0.0316 µM, first compound 0.01 µM): 98.8%; viability, T/C (second compound 0.0316 µM, first compound 0.0316 µM): 78.5%; viability, T/C (second compound 0.0316 µM, first compound 0.1 µM): 78.3%; viability, T/C (second compound 0.0316 µM, first compound 0.316 µM): 69.2%; viability, T/C (second compound 0.0316 µM, first compound 1 µM): 74.9%; viability, T/C (second compound 0.0316 µM, first compound 3.16 µM): 40.7%; viability, T/C [5]: 115%; viability, T/C [11]: 78.5%; viability, T/C [16]: 33.2%; viability, T/C [17]: 83.4%; viability, T/C [20]: 58.6%; viability, T/C [21]: 33.9%; viability, T/C [22]: 26.7%; viability, T/C [23]: 38.3%; viability, T/C [26]: 29.5%; viability, T/C [27]: 30.7%; viability, T/C [28]: 13.2%
O=C(c1cc(Cc2n[nH]c(=O)c3ccccc23)ccc1F)N1CCN(C(=O)C2CC2)CC1 + CNCc1ccccc1-c1csc(C(C)Nc2nc(C)nc3cc(OC)c(OC)cc23)c1	> 10000 nM	> 10000 nM	> 10000 nM	> 10000 nM	78.8%	93.4%	86.4%	82.6%	78.9%	105%	105%	97.8%	75.8%	132%	92.3%	60.3%	52.2%	< 31.6 nM	0.49%	0.38%	viability, T/C [30]: 115%; viability, T/C [16]: 70.9%; viability, T/C [31]: 82.4%; viability, T/C [20]: 77%; viability, T/C [21]: 127%; viability, T/C [22]: 91.8%; viability, T/C [32]: 115%; viability, T/C [26]: 59.5%; viability, T/C [27]: 70.5%; viability, T/C [28]: 76.8%; viability, T/C [33]: 64.6%; viability, T/C [36]: 0.54%; viability, T/C [37]: 0.33%; viability, T/C [38]: 0.44%; viability, T/C [39]: 0.38%
CC(C)n1nc(-c2ccc3oc(N)nc3c2)c2c(N)ncnc21 + COc1cc2nc(C)nc(NC(C)c3cc(N)cc(C(F)(F)F)c3)c2cc1OC1CCOC1	> 100 nM	> 100 nM	> 100 nM	> 100 nM	70.9%	74.9%				73.5%	72.2%			65.6%	77.4%	60.2%	84.7%	4.58 nM	30.2%	45.6%	viability, T/C [40]: 107%; viability, T/C [41]: 93.9%; viability, T/C [42]: 79.3%; viability, T/C [5]: 73%; viability, T/C [43]: 89.1%; viability, T/C [44]: 99.8%; viability, T/C [45]: 90.2%; viability, T/C [11]: 84.9%; viability, T/C [46]: 89.9%; viability, T/C [47]: 84.8%; viability, T/C [48]: 75.5%; viability, T/C [17]: 67.8%; viability, T/C [49]: 117%; viability, T/C [50]: 84.2%; viability, T/C [51]: 93.4%; viability, T/C [23]: 72.5%; viability, T/C [52]: 78.1%; viability, T/C [53]: 71.7%; viability, T/C [54]: 54.3%; viability, T/C [55]: 42.6%
O=C(c1cc(Cc2n[nH]c(=O)c3ccccc23)ccc1F)N1CCN(C(=O)C2CC2)CC1 + COc1cc2nc(C)nc(NC(C)c3cc(N)cc(C(F)(F)F)c3)c2cc1OC1CCOC1	> 10000 nM	> 10000 nM	> 10000 nM	> 10000 nM	68.1%	98.2%	98.6%	111%	91%	75.1%	90%	89.9%	80.2%	73.3%	108%	78.1%	89.7%	> 10000 nM	117%	85.1%	viability, T/C [30]: 97.4%; viability, T/C [16]: 102%; viability, T/C [31]: 99.1%; viability, T/C [20]: 89.9%; viability, T/C [21]: 83.7%; viability, T/C [22]: 112%; viability, T/C [32]: 72.6%; viability, T/C [26]: 75.6%; viability, T/C [27]: 80.8%; viability, T/C [28]: 79.6%; viability, T/C [33]: 66.8%; viability, T/C [36]: 96.2%; viability, T/C [37]: 53.4%; viability, T/C [38]: 67.1%; viability, T/C [39]: 109%
COC(=O)c1ccc2c(C(=Nc3ccc(N(C)C(=O)CN4CCN(C)CC4)cc3)c3ccccc3)c(O)[nH]c2c1 + C=CC(=O)N1CCN(c2nc(=O)n(-c3c(C)ccnc3C(C)C)c3nc(-c4c(O)cccc4F)c(F)cc23)C(C)C1	> 10000 nM	> 10000 nM	> 10000 nM	> 10000 nM	121%	86.2%	85.9%	101%	102%	106%	83.8%	77.8%	76.2%	89.4%	67.9%	96.9%	75.1%	> 10000 nM	72.9%	74.3%	viability, T/C [30]: 91.1%; viability, T/C [16]: 89.4%; viability, T/C [31]: 94.1%; viability, T/C [20]: 111%; viability, T/C [21]: 90.7%; viability, T/C [22]: 76%; viability, T/C [32]: 60.1%; viability, T/C [26]: 82.8%; viability, T/C [27]: 66.3%; viability, T/C [28]: 70.7%; viability, T/C [33]: 84.2%; viability, T/C [36]: 60.1%; viability, T/C [37]: 80.4%; viability, T/C [38]: 101%; viability, T/C [39]: 75.3%
CN(C)C/C=C/C(=O)Nc1cc2c(Nc3ccc(F)c(Cl)c3)ncnc2cc1O[C@H]1CCOC1																					viability, T/C (compound 0.1 µM): 92.6% [middle of 5 runs]; IC50 (curve of compound): > 100 nM
Cn1ncnc1[C@H]1c2n[nH]c(=O)c3cc(F)cc(c23)N[C@@H]1c1ccc(F)cc1 + COc1cc2nc(C)nc(NC(C)c3cc(N)cc(C(F)(F)F)c3)c2cc1OC1CCOC1	> 100 nM	> 100 nM	> 100 nM	> 100 nM	76.9%	80.1%				77%	74.5%			68%	58%	47.8%	70.6%	> 100 nM	57.8%	48.4%	viability, T/C [40]: 71.8%; viability, T/C [41]: 95.3%; viability, T/C [42]: 73.5%; viability, T/C [5]: 71.8%; viability, T/C [43]: 68.2%; viability, T/C [44]: 68.7%; viability, T/C [45]: 59.2%; viability, T/C [11]: 74.9%; viability, T/C [46]: 74.7%; viability, T/C [47]: 67.3%; viability, T/C [48]: 70.9%; viability, T/C [17]: 97.4%; viability, T/C [49]: 45.8%; viability, T/C [50]: 60.3%; viability, T/C [51]: 45.7%; viability, T/C [23]: 69.8%; viability, T/C [52]: 49.7%; viability, T/C [53]: 55.6%; viability, T/C [54]: 57.8%; viability, T/C [55]: 50.7%
